Laboratory results taken from US6987114B1, “Antiviral pyrimidinedione derivatives and process for the preparation thereof” (Samjin Pharmaceutical Co., Ltd, priority 1999, dated 2006).
≈ marks a conversion by molar mass, not a printed value. Read-outs that look alike come from different tables or passages of the source.

Assays:
[1] = test system: mock-infected MT-4 cells; test: Cytotoxicity based on viability of mock-infected host cells (MTT method); assay type: cell-based; settings: mock-infected MT-4 cells, MTT method, 4 or 5 days at 37° C.
Procedure, shortened: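 Mock-infected MT-4 cells at 2.5×10^5 cells/ml were exposed to various concentrations of test compound, run in parallel with HIV-infected (1000 CCID50) cultures. After 4 or 5 days at 37° C., host-cell viability was read by MTT.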

[2] = test system: HIV; test: microbe, parasite or virus in culture; assay type: cell-based
Procedure, shortened: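 MT-4 cells (2.5×10^5 cells/ml) infected with 1000 CCID50 HIV, added at once to compound dilutions, incubated 4 or 5 days at 37° C. Protection from virus-induced cytopathic effect read by MTT; cytotoxicity from MTT viability of mock-infected cells in parallel.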

[3] = Human immunodeficiency virus 1, MT4, HIV-infected MT-4 cells, MTT method, 4 or 5 days at 37° C., read-out: ED50 (the source's name)
[4] = Human immunodeficiency virus 1, MT4, read-out: ED50

| SMILES | melting point [°C] | EC50 [2, 3] [µg/mL] | CD50 [1] [µg/mL] | EC50 [2, 4] [µg/mL] |
| --- | --- | --- | --- | --- |
| Cc1cc(C)cc(Oc2c(C(C)C)c(=O)[nH]c(=O)n2Cc2ccc3c(c2)C(=O)c2ccccc2C3=O)c1 [Example 106, 1-(Anthraquinon-2-ylmethyl)-5-isopropyl-6-(3,5-dimethylphenoxy)-2,4-pyrimidinedione] | 246 to 248 | 0.49 (≈ 0.991 µM) | 9.49 |  |
| Cc1cc(C)cc(C(=O)c2c(C(C)C)c(=O)[nH]c(=O)n2Cc2ccc3c(c2)C(=O)c2ccccc2C3=O)c1 [Example 108, 1-(Anthraquinon-2-ylmethyl)-5-isopropyl-6-(3,5-dimethylbenzoyl)-2,4-pyrimidinedione] | 156 to 158 | 0.017 (≈ 0.0336 µM) | 14.41 |  |
| CCc1c(Sc2cc(C)cc(C)c2)n(Cc2cccnc2)c(=O)[nH]c1=O [Example 115, 1-(Pyridin-3-ylmethyl)-5-ethyl-6-(3,5-dimethylphenyl)thio-2,4-pyrimidinedione] | 202 to 205 |  | 16.63 | 0.014 (≈ 0.0381 µM) |
| Cc1cc(C)cc(Sc2c(C(C)C)c(=O)[nH]c(=O)n2Cc2cccnc2)c1 [Example 116, 1-(Pyridin-3-ylmethyl)-5-isopropyl-6-(3,5-dimethylphenyl)thio-2,4-pyrimidinedione] | 159 to 161 |  | 10.09 | 0.003 (≈ 0.00786 µM) |
| CCc1c(Oc2cc(C)cc(C)c2)n(Cc2cccnc2)c(=O)[nH]c1=O [Example 117, 1-(Pyridin-3-ylmethyl)-5-ethyl-6-(3,5-dimethylphenoxy)-2,4-pyrimidinedione] | 230 to 232 |  | 40.20 | 0.061 (≈ 0.174 µM) |
| Cc1cc(C)cc(Oc2c(C(C)C)c(=O)[nH]c(=O)n2Cc2cccnc2)c1 [Example 118, 1-(Pyridin-3-ylmethyl)-5-isopropyl-6-(3,5-dimethylphenoxy)-2,4-pyrimidinedione] | 190 to 193 |  | 33.50 | 0.015 (≈ 0.041 µM) |
| CCc1c(C(=O)c2cc(C)cc(C)c2)n(Cc2cccnc2)c(=O)[nH]c1=O [Example 119, 1-(Pyridin-3-ylmethyl)-5-ethyl-6-(3,5-dimethylbenzoyl)-2,4-pyrimidinedione] | 170 to 172 |  | 39.00 | 0.0038 (≈ 0.0105 µM) |
| Cc1cc(C)cc(C(=O)c2c(C(C)C)c(=O)[nH]c(=O)n2Cc2cccnc2)c1 [Example 120, 1-(Pyridin-3-ylmethyl)-5-isopropyl-6-(3,5-dimethylbenzoyl)-2,4-pyrimidinedione] | 178 to 180 |  | 8.80 | 0.002 (≈ 0.0053 µM) |
| CCc1c(Sc2cc(C)cc(C)c2)n(Cc2cccc(Cl)n2)c(=O)[nH]c1=O [Example 121, 1-(2-Chloropyridin-6-ylmethyl)-5-ethyl-6-(3,5-dimethyl-phenyl)thio-2,4-pyrimidinedione] | 145 to 148 | > 7.72 | 7.72 |  |
| Cc1cc(C)cc(Sc2c(C(C)C)c(=O)[nH]c(=O)n2Cc2cccc(Cl)n2)c1 [Example 122, 1-(2-Chloropyridin-6-ylmethyl)-5-isopropyl-6-(3,5-dimethylphenyl)thio-2,4-pyrimidinedione] | 159 to 161 | > 2.8 | 2.80 |  |
| CCc1c(Oc2cc(C)cc(C)c2)n(Cc2cccc(Cl)n2)c(=O)[nH]c1=O [Example 123, 1-(2-Chloropyridin-6-ylmethyl)-5-ethyl-6-(3,5-dimethylphenoxy)-2,4-pyrimidinedione] | 199 to 201 | 0.122 (≈ 0.316 µM) | 79.14 |  |
| Cc1cc(C)cc(Oc2c(C(C)C)c(=O)[nH]c(=O)n2Cc2cccc(Cl)n2)c1 [Example 124, 1-(2-Chloropyridin-6-ylmethyl)-5-isopropyl-6-(3,5-dimethylphenoxy)-2,4-pyrimidinedione] | 223 to 225 | 0.082 (≈ 0.205 µM) | >100.00 |  |
| Cc1cc(C)cc(Oc2c(C(C)C)c(=O)[nH]c(=O)n2Cc2cccc(Br)n2)c1 [Example 128, 1-(2-Bromopyridin-6-ylmethyl)-5-isopropyl-6-(3,5-dimethylphenoxy)-2,4-pyrimidinedione] | 228 to 230 | 0.079 (≈ 0.178 µM) | 48.27 |  |
| CCc1c(Sc2cc(C)cc(C)c2)n(Cc2ccc3ccccc3n2)c(=O)[nH]c1=O [Example 131, 1-(Quinolin-2-ylmethyl)-5-ethyl-6-(3,5-dimethylphenyl)-thio-2,4-pyrimidinedione] | 107 to 110 | > 10.6 | 10.60 |  |
| Cc1cc(C)cc(Sc2c(C(C)C)c(=O)[nH]c(=O)n2Cc2ccc3ccccc3n2)c1 [Example 132, 1-(Quinolin-2-ylmethyl)-5-isopropyl-6-(3,5-dimethylphenyl)thio-2,4-pyrimidinedione] | 181 to 183 | > 9.58 | 9.60 |  |
| CCc1c(Oc2cc(C)cc(C)c2)n(Cc2ccc3ccccc3n2)c(=O)[nH]c1=O [Example 133, 1-(Quinolin-2-ylmethyl)-5-ethyl-6-(3,5-dimethyl-phenoxy)-2,4-pyrimidinedione] | 220 to 222 | 0.06 (≈ 0.149 µM) | 11.70 |  |
| Cc1cc(C)cc(Oc2c(C(C)C)c(=O)[nH]c(=O)n2Cc2ccc3ccccc3n2)c1 [Example 134, 1-(Quinolin-2-ylmethyl)-5-isopropyl-6-(3,5-dimethyl-phenoxy)-2,4-pyrimidinedione] | 246 to 248 | 0.004 (≈ 0.00963 µM) | 66.80 |  |

Now from value to compound, other results behind:

| melting point [°C] | EC50 [2, 3] [µg/mL] | SMILES | CD50 [1] [µg/mL] | EC50 [2, 4] [µg/mL] |
| --- | --- | --- | --- | --- |
| 143 to 146 | 0.026 (≈ 0.0528 µM) | CCc1c(C(=O)c2cc(C)cc(C)c2)n(Cc2ccc3c(c2)C(=O)c2ccccc2C3=O)c(=O)[nH]c1=O [Example 107, 1-(Anthraquinon-2-ylmethyl)-5-ethyl-6-(3,5-dimethylbenzoyl)-2,4-pyrimidinedione] | 2.38 |  |
| 217 to 219 | 0.015 (≈ 0.0408 µM) | CCc1c(Sc2cc(C)cc(C)c2)n(Cc2ccccn2)c(=O)[nH]c1=O [Example 109, 1-(Pyridin-2-ylmethyl)-5-ethyl-6-(3,5-dimethylphenyl)thio-2,4-pyrimidinedione] | 29.72 |  |
| 194 to 196 | 0.009 (≈ 0.0236 µM) | Cc1cc(C)cc(Sc2c(C(C)C)c(=O)[nH]c(=O)n2Cc2ccccn2)c1 [Example 110, 1-(Pyridin-2-ylmethyl)-5-isopropyl-6-(3,5-dimethylphenyl)thio-2,4-pyrimidinedione] | 9.61 |  |
| 215 to 217 | 0.081 (≈ 0.231 µM) | CCc1c(Oc2cc(C)cc(C)c2)n(Cc2ccccn2)c(=O)[nH]c1=O [Example 111, 1-(Pyridin-2-ylmethyl)-5-ethyl-6-(3,5-dimethylphenoxy)-2,4-pyrimidinedione] | >100.00 |  |
| 220 to 223 | 0.029 (≈ 0.0794 µM) | Cc1cc(C)cc(Oc2c(C(C)C)c(=O)[nH]c(=O)n2Cc2ccccn2)c1 [Example 112, 1-(Pyridin-2-ylmethyl)-5-isopropyl-6-(3,5-dimethylphenoxy)-2,4-pyrimidinedione] | >100.00 |  |
| 153 to 155 | 0.0084 (≈ 0.0231 µM) | CCc1c(C(=O)c2cc(C)cc(C)c2)n(Cc2ccccn2)c(=O)[nH]c1=O [Example 113, 1-(Pyridin-2-ylmethyl)-5-ethyl-6-(3,5-dimethylbenzoyl)-2,4-pyrimidinedione] | 32.80 |  |
| 196 to 198 | 0.015 (≈ 0.0377 µM) | CCc1c(C(=O)c2cc(C)cc(C)c2)n(Cc2cccc(Cl)n2)c(=O)[nH]c1=O [Example 125, 1-(2-Chloropyridin-6-ylmethyl)-5-ethyl-6-(3,5-dimethyl-benzoyl)-2,4-pyrimidinedione] | 9.02 |  |
| 206 to 208 | 0.011 (≈ 0.0267 µM) | Cc1cc(C)cc(C(=O)c2c(C(C)C)c(=O)[nH]c(=O)n2Cc2cccc(Cl)n2)c1 [Example 126, 1-(2-Chloropyridin-6-ylmethyl)-5-isopropyl-6-(3,5-dimethylbenzoyl)-2,4-pyrimidinedione] | 9.85 |  |
| 201 to 203 | 0.194 (≈ 0.451 µM) | CCc1c(Oc2cc(C)cc(C)c2)n(Cc2cccc(Br)n2)c(=O)[nH]c1=O [Example 127, 1-(2-Bromopyridin-6-ylmethyl)-5-ethyl-6-(3,5-dimethylphenoxy)-2,4-pyrimidinedione] | 9.46 |  |
| 218 to 220 | 0.015 (≈ 0.0329 µM) | Cc1cc(C)cc(C(=O)c2c(C(C)C)c(=O)[nH]c(=O)n2Cc2cccc(Br)n2)c1 [Example 130, 1-(2-Bromopyridin-6-ylmethyl)-5-isopropyl-6-(3,5-dimethyl-benzoyl)-2,4-pyrimidinedione] | 8.85 |  |
| 218 to 220 | 0.0089 (≈ 0.0215 µM) | CCc1c(C(=O)c2cc(C)cc(C)c2)n(Cc2ccc3ccccc3n2)c(=O)[nH]c1=O [Example 135, 1-(Quinolin-2-ylmethyl)-5-ethyl-6-(3,5-dimethylbenzoyl)-2,4-pyrimidinedione] | 6.80 |  |
| 152 to 154 | 0.0097 (≈ 0.0227 µM) | Cc1cc(C)cc(C(=O)c2c(C(C)C)c(=O)[nH]c(=O)n2Cc2ccc3ccccc3n2)c1 [Example 136, 1-(Quinolin-2-ylmethyl)-5-isopropyl-6-(3,5-dimethyl-benzoyl)-2,4-pyrimidinedione] | 8.70 |  |
